The structures appear in SMILES notation. Where a name gives a salt, the structure may show the parent alone. Bounds are passed on as bounds.

In one assay the target is T1, SHP2 (Homo sapiens, UniProt Q06124).
T1 sequence (Q06124 1-593): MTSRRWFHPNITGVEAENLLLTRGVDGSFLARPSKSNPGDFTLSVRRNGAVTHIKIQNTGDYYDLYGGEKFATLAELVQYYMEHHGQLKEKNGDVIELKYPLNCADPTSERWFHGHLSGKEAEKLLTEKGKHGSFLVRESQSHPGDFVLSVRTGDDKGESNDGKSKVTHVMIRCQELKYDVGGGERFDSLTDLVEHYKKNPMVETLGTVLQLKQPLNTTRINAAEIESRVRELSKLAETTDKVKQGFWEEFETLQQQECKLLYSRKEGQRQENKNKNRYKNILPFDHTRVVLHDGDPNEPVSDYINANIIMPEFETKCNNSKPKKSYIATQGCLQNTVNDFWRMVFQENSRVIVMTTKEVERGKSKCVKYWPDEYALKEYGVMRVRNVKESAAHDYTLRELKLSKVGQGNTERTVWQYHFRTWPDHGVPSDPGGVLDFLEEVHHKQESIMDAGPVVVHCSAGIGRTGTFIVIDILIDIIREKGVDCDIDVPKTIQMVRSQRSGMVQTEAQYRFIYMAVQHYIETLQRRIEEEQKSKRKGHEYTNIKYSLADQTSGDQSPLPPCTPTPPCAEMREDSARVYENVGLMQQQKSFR
The experiment in a line: SHP2 allosteric inhibition assay (DiFMUP prompt fluorescence). The format is biochemical. The following applies: Table 1; 0.25 nM SHP2, 0.5 μM IRS1_pY1172(dPEG8)pY1222 peptide, DiFMUP 100 μM. From the text: SHP2 Allosteric Inhibition Assay.
SHP2 is allosterically activated through binding of bis-tyrosyl-phosphorylated peptides to its Src Homology 2 (SH2) domains. The latter activation step leads to the release of the auto-inhibitory interface of SHP2, which in turn renders the SHP2 protein tyrosine phosphatase (PTP) active and available for substrate recognition and reaction catalysis. The catalytic activity of SHP2 was monitored using the surrogate substrate DiFMUP in a prompt fluorescence assay format.
The inhibitor dose response curves were analyzed using normalized IC50 regression curve fitting with control based normalization.
Consider `CC1(CN)CCN(c2nn3cc(-c4cccc(Cl)c4Cl)nc3s2)CC1` [Compound A2, (1-(6-(2,3-dichlorophenyl)imidazo[2,1-b][1,3,4]thiadiazol-2-yl)-4-methylpiperidin-4-yl)methanamine formate], for which the IC50 (commonly the concentration needed to halve the response being measured) fell in the range of 5 to 20 µM.

On to `CC1(CN)CCN(c2nn3c(N)c(-c4ccccc4Cl)nc3s2)C1` (centres unmarked) [Compound A6, 2-(3-(aminomethyl)-3-methylpyrrolidin-1-yl)-6-(2-chlorophenyl)imidazo[2,1-b][1,3,4]thiadiazol-5-amine], for which the IC50 is 5 to 20 µM.

`CC1(CN)CCN(c2nn3cc(C(=O)N4CCCc5ncccc54)nc3s2)C1` (centres unmarked) [Compound A8, (2-(3-(aminomethyl)-3-methylpyrrolidin-1-yl)imidazo[2,1-b][1,3,4]thiadiazol-6-yl)(3,4-dihydro-1,5-naphthyridin-1(2H)-yl)methanone formate] returned an IC50 greater than 20 µM.

Turning to `CC1(CN)CCN(c2nn3c(N)c(-c4cccc(Cl)c4Cl)nc3s2)C1` (centres unmarked) [Compound A5, 2-(3-(aminomethyl)-3-methylpyrrolidin-1-yl)-6-(2,3-dichlorophenyl)imidazo[2,1-b][1,3,4]thiadiazol-5-amine], the IC50 was less than 5 µM.

`Cc1c(-c2ccccc2Cl)nc2sc(N3CCC(C)(CN)C3)nn12` (centres unmarked) [Compound A10, (1-(6-(2-chlorophenyl)-5-methylimidazo[2,1-b][1,3,4]thiadiazol-2-yl)-3-methylpyrrolidin-3-yl)methanamine formate] had an IC50 of less than 5 µM.

In the case of `Nc1c(-c2cccc(Cl)c2Cl)nc2sc(N3C[C@@H]4[C@@H](N)[C@@H]4C3)nn12` [Compound A3], the IC50 was less than 5 µM.

For `CC1(N)CCN(c2nn3c(N)c(-c4cccc(Cl)c4Cl)nc3s2)CC1` [Compound A4, 2-(4-amino-4-methylpiperidin-1-yl)-6-(2,3-dichlorophenyl)imidazo[2,1-b][1,3,4]thiadiazol-5-amine formate], the IC50 is greater than 20 µM.

Compound `Nc1c(-c2cccc(Cl)c2Cl)nc2sc(N3CCNCC3)nn12` [Compound A12, 6-(2,3-dichlorophenyl)-2-(piperazin-1-yl)imidazo[2,1-b][1,3,4]thiadiazol-5-amine] yielded an IC50 greater than 20 µM.

Staying with this assay, now noted: Table 2; 0.25 nM SHP2, 0.5 μM IRS1_pY1172(dPEG8)pY1222 peptide, DiFMUP 100 μM.
In the case of `CC1(N)CCN(c2nc(N)c(-c3cccc(Cl)c3Cl)s2)CC1` [Compound B1, 2-(4-amino-4-methyl-1-piperidyl)-5-(2,3-dichlorophenyl)thiazol-4-amine, dihydrochloride], the IC50 was less than 100 µM.

For `CC1(CN)CCN(c2ncc(C(=O)N3CCCc4ncccc43)s2)C1` (centres unmarked) [Compound B2, (2-(3-(aminomethyl)-3-methylpyrrolidin-1-yl)thiazol-5-yl)(3,4-dihydro-1,5-naphthyridin-1(2H)-yl)methanone], the IC50 was greater than 100 µM.

As to `CC1(CN)CCN(c2ncc(-c3ccccc3Cl)s2)C1` (centres unmarked) [Compound B3, (1-(5-(2-chlorophenyl)thiazol-2-yl)-3-methylpyrrolidin-3-yl)methanamine formate], the IC50 was greater than 100 µM.

Staying with this assay, now noted: Table 3; 0.25 nM SHP2, 0.5 μM IRS1_pY1172(dPEG8)pY1222 peptide, DiFMUP 100 μM.
On to `O=C(O)c1csc(-c2ccc(Cl)cc2Cl)n1` [Compound C5], for which the IC50 was 500 to 1000 µM.

`Cn1cnnc1SCc1csc(-c2ccc3c(c2)OCO3)n1` [Compound C26] returned an IC50 greater than 1000 µM.

For the compound `COc1cc(-c2nc(CN(C)c3ccc4c(c3)OCO4)cs2)ccc1O` [Compound C11], the IC50 is less than 500 µM.

Regarding `O=C(O)c1csc(-c2cccc3ccccc23)n1` [Compound C2], the IC50 is less than 500 µM.

As for `COc1ccc(-c2nc(CSc3cccc[n+]3[O-])cs2)cc1OC` [Compound C16], the IC50 was less than 500 µM.

In turn, `c1ccc(-c2nc(CSc3nncs3)cs2)cc1` [Compound C40] had an IC50 greater than 1000 µM.

In turn, `COc1cc(-c2nc(CSc3nncs3)cs2)ccc1O` [Compound C4] showed an IC50 of less than 500 µM.

Turning to `COc1ccc(-c2nc(CSc3ncccn3)cs2)cc1OC` [Compound C7], the IC50 lay within 500 to 1000 µM.

`O=C(O)c1csc(-c2ncccc2Cl)n1` [Compound C43] came in with an IC50 greater than 1000 µM.

For the compound `COc1ccc(-c2nc(CSc3nccn3C3CC3)cs2)cc1OC` [Compound C12], the IC50 was less than 500 µM.

As for `COc1cccc(-c2nc(CSc3nncs3)cs2)c1` [Compound C9], the 50% inhibitory concentration (IC50) lay in the range of 500 to 1000 µM.

On to `Cc1nc(-c2ccc(C(F)(F)F)cc2)sc1C(=O)N1CC[C@@H](N)C1` [Compound C44], for which the IC50 is greater than 1000 µM.

On to `COc1ccc(-c2nc(CSc3nnc(C4CC4)n3N)cs2)cc1OC` [Compound C10], for which the IC50 was in the range of 500 to 1000 µM.

`COc1cc(-c2nc(Cn3cccc(C(F)(F)F)c3=O)cs2)ccc1O` [Compound C21] returned an IC50 of less than 500 µM.

Compound `C=C(C)CSc1nnc(SCc2csc(-c3ccc(OC)c(OC)c3)n2)s1` [Compound C33] yielded an IC50 greater than 1000 µM.

As for `COc1ccc(-c2nc(CSc3nnc(N(C(C)=O)C4CC4)s3)cs2)cc1OC` [Compound C38], the IC50 is greater than 1000 µM.

In turn, `Clc1ccc(-c2nc(CSc3nncs3)cs2)cc1` [Compound C27] registered an IC50 greater than 1000 µM.

`COc1cc(-c2nc(CSc3nncn3C)cs2)ccc1O` [Compound C20] displayed an IC50 of less than 500 µM.

On to `O=C(Nc1cc(C(F)(F)F)cc(C(F)(F)F)c1)c1csc(-c2cccc(Cl)c2Cl)n1` [Compound C3], for which the IC50 was 500 to 1000 µM.

With `COc1cc(-c2nc(CN(C)Cc3ccco3)cs2)ccc1O` [Compound C37], the IC50 was greater than 1000 µM.

The compound `COc1ccc(-c2nc(CSc3nncn3-c3ccccc3)cs2)cc1OC` [Compound C29] yielded an IC50 greater than 1000 µM.

In turn, `CNCC1CCN(C(=O)Cc2csc(-c3ccc(Cl)cc3Cl)n2)C1` (centres unmarked) [Compound C45] showed an IC50 greater than 1000 µM.

As to `COc1ccccc1-c1nc(C(=O)N2CCCC(C(C)N)C2)cs1` (centres unmarked) [Compound C46], the IC50 is greater than 1000 µM.

Consider `COc1ccc(-c2nc(CSc3nncs3)cs2)cc1` [Compound C28], for which the IC50 is greater than 1000 µM.

`CCOc1ccc(-c2nc(CSc3nncs3)cs2)cc1OC` [Compound C23] had an IC50 greater than 1000 µM.

In turn, `O=C(O)c1csc(-c2ccccc2Cl)n1` [Compound C42] returned an IC50 greater than 1000 µM.

Turning to `COc1ccc(-c2nc(CSc3nnc(NCC4CCCO4)s3)cs2)cc1OC` (centres unmarked) [Compound C19], the IC50 lay within 500 to 1000 µM.

Regarding `NC1CCCN(C(=O)c2cnc(-c3ccc(C(F)(F)F)cc3)s2)CC1` (centres unmarked) [Compound C48], the IC50 is greater than 1000 µM.

Still in this assay, the particulars now being: Table 4; 0.25 nM SHP2, 0.5 μM IRS1_pY1172(dPEG8)pY1222 peptide, DiFMUP 100 μM.
As for `CC1(N)CCN(c2ncnc3c(-c4cccc(Cl)c4Cl)csc23)CC1` [Compound D1, 1-(7-(2,3-dichlorophenyl)thieno[3,2-d]pyrimidin-4-yl)-4-methylpiperidin-4-amine formate], the IC50 is 1 to 10 µM.

The same assay, now with this note: Table 5; 0.25 nM SHP2, 0.5 μM IRS1_pY1172(dPEG8)pY1222 peptide, DiFMUP 100 μM.
With `Cc1cc2occ(-c3ccccc3Cl)n2n1` [Compound E3, 3-(2-chlorophenyl)-6-methylpyrazolo[5,1-b]oxazole], the IC50 is greater than 100 µM.

`Clc1ccccc1-c1coc2ccnn12` [Compound E4, 3-(2-chlorophenyl)pyrazolo[5,1-b]oxazole]: the IC50 was greater than 100 µM.

As for `CC1(N)CCN(c2cnn3c(-c4ccccc4Cl)coc23)CC1` [Compound E1, 1-(3-(2-chlorophenyl)pyrazolo[5,1-b]oxazol-7-yl)-4-methylpiperidin-4-amine formate], the IC50 lay within 50 to 100 µM.

Still in this assay, the particulars now being: Table 6; 0.25 nM SHP2, 0.5 μM IRS1_pY1172(dPEG8)pY1222 peptide, DiFMUP 100 μM.
Consider `C[C@@H]1OCC2(CCN(c3nc4[nH]nc(N5CCc6ccccc6C5)c4c(=O)n3C)CC2)[C@@H]1N` [Compound F12, 6-[(3S,4S)-4-amino-3-methyl-2-oxa-8-azaspiro[4.5]decan-8-yl]-5-methyl-3-(1,2,3,4-tetrahydroisoquinolin-2-yl)-1H,4H,5H-pyrazolo[3,4-d]pyrimidin-4-one], for which the IC50 was less than 1 µM.

For the compound `C[C@@H]1OCC2(CCN(c3nc4[nH]nc(N5CCc6ncccc65)c4c(=O)n3C)CC2)[C@@H]1N` [Compound F11, 6-[(3S,4S)-4-amino-3-methyl-2-oxa-8-azaspiro[4.5]decan-8-yl]-5-methyl-3-{1H,2H,3H-pyrrolo[3,2-b]pyridin-1-yl}-1H,4H,5H-pyrazolo[3,4-d]pyrimidin-4-one formate], the IC50 was 1 to 20 µM.

Take `Cn1c(N2CCC(C)(CN)CC2)nc2[nH]nc(Sc3cccc(Cl)c3)c2c1=O` [Compound F8, 6-(4-(aminomethyl)-4-methylpiperidin-1-yl)-3-((3-chlorophenyl)thio)-5-methyl-1H-pyrazolo[3,4-d]pyrimidin-4(5H)-one]: the IC50 is less than 1 µM.

`CC1(N)CCN(c2cc(=O)nc3[nH]nc(-c4cccc(Cl)c4F)n23)CC1` [Compound F2, 5-(4-amino-4-methylpiperidin-1-yl)-3-(3-chloro-2-fluorophenyl)-[1,2,4]triazolo[4,3-a]pyrimidin-7(1H)-one hydrochloride] had an IC50 greater than 20 µM.

Source of the values: US20200392161A1, “SHP2 PHOSPHATASE INHIBITORS AND METHODS OF USE THEREOF” (Relay Therapeutics, Inc., priority 2018, published 2020).
